Assay results from patent publication US11944704B2, “Coenzyme Q10 aerosol” (UNM Rainforest Innovations, priority 2015, dated 2024).

Test: Maximum solubility of CoQ10 in coconut oil
Format: physicochemical
Conditions: in neobee (coconut oil)

maximum solubility: 6%
SMILES: COC1=C(OC)C(=O)C(C/C=C(\C)CC/C=C(\C)CC/C=C(\C)CC/C=C(\C)CC/C=C(\C)CC/C=C(\C)CC/C=C(\C)CC/C=C(\C)CC/C=C(\C)CCC=C(C)C)=C(C)C1=O [Emulsion Q10, 2-[(2E,6E,10E,14E,18E,22E,26E,30E,34E)-3,7,11,15,19,23,27,31,35,39-Decamethyltetraconta-2,6,10,14,18,22,26,30,34,38-decaenyl]-5,6-dimethoxy-3-methylcyclohexa-2,5-diene-1,4-dione]
